From US20250353891A1 (MEDIMMUNE LIMITED, priority 2022, published 2025)
pEC50: −log10 of the molar value. Starred links: 1 amine or outer side, 2 acyl side, 3 side chain; linkers in the order of their positions; H or OH if unused. Non-standard residues stand in square brackets, D forms with d. Residues, ends and D or L forms follow the SMILES beside them. Groups on a side chain read outwards from the residue. *: point of attachment. C20 diacid = O=C(O)CCCCCCCCCCCCCCCCCCC(=O)*; C18 diacid = O=C(O)CCCCCCCCCCCCCCCCC(=O)*; γGlu = O=C(O)[C@H](CCC(=O)[*:2])N[*:1]; αMeF = C[C@](N)(Cc1ccccc1)C(=O)O; AEEA = NCCOCCOCC(=O)O; Aib = CC(C)(N)C(=O)O

How the values were obtained:
[1] = molecular target: human GLP-1 receptor (hGLP-1R) (Homo sapiens, UniProt P43220); experiment: cAMP production (HTRF) in CHO cells expressing hGLP-1R; type: cell-based; parameters: expressed in transfected cells; conditions: for pEC50: Table 7, peptides modified at position 20, cAMP in CHO hGLP-1R cells, geometric mean, read-out: hGLP-1R EC50; for % Relative Potency Ratio: Table 7, % GLP-1R activity relative to GLP-1 / % GlucR activity relative to glucagon
Sequence of human GLP-1 receptor (hGLP-1R) (P43220 24-463): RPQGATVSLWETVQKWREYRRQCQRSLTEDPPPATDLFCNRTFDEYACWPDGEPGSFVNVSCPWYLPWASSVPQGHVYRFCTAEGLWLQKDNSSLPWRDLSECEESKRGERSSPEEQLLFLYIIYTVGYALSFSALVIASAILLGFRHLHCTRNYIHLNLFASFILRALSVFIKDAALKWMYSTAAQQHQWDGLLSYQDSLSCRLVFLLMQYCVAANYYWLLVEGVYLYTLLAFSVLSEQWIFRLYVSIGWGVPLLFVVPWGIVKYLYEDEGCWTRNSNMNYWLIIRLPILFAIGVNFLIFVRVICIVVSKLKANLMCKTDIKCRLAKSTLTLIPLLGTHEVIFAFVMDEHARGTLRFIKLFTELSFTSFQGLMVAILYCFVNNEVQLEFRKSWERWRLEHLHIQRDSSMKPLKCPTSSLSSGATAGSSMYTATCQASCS
How it was run: (§1)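 Read-out: HTRF cAMP (anti-cAMP cryptate donor, cAMP-d2 acceptor in conjugate/lysis buffer), converted to % Delta F and fitted by 4-parameter logistic for EC50. Cell densities were 1×10^5 cells/mL (hGLP-1R) or 2×10^5 cells/mL (hGCGR). Stimulation lasted 30 min at room temperature.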

[2] = molecular target: human glucagon receptor (hGCGR) (Homo sapiens, UniProt P47871); experiment: cAMP production (HTRF) in CHO cells expressing hGCGR; type: cell-based; parameters: expressed in transfected cells; conditions: Table 7, peptides modified at position 20; cAMP in CHO hGCGR cells; geometric mean; read-out: hGluc-R EC50
Sequence of human glucagon receptor (hGCGR) (P47871 26-477): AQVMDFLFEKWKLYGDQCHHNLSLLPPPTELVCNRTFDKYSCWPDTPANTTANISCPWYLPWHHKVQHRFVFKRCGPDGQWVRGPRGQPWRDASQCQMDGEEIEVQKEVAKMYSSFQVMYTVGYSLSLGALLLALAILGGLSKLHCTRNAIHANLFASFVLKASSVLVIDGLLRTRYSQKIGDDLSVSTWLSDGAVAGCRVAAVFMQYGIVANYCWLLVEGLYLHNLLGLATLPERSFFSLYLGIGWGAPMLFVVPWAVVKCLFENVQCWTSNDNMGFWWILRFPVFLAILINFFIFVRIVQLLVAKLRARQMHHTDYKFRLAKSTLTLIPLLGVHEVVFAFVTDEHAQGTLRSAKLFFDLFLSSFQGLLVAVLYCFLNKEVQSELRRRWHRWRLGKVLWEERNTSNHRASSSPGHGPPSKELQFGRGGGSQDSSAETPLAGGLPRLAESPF
How it was run: as §1

Structure (SMILES)	pEC50 [1]	% Relative Potency Ratio [1]	pEC50 [2]
CC[C@H](C)[C@H](NC(=O)[C@H](Cc1c[nH]c2ccccc12)NC(=O)[C@H](CCC(N)=O)NC(=O)[C@@H](NC(=O)[C@H](Cc1ccccc1)NC(=O)[C@H](CC(=O)O)NC(=O)[C@H](CCCCNC(=O)COCCOCCNC(=O)COCCOCCNC(=O)CC[C@H](NC(=O)CC[C@H](NC(=O)CCCCCCCCCCCCCCCCCCC(=O)O)C(=O)O)C(=O)O)NC(=O)[C@H](C)NC(=O)C(C)(C)NC(=O)[C@H](CCCNC(=N)N)NC(=O)[C@H](CO)NC(=O)[C@H](CC(=O)O)NC(=O)[C@H](CC(C)C)NC(=O)[C@](C)(Cc1ccccc1)NC(=O)[C@H](CCCCN)NC(=O)[C@H](CO)NC(=O)[C@@H](NC(=O)[C@H](CC(=O)O)NC(=O)[C@H](CO)NC(=O)[C@@H](NC(=O)[C@](C)(Cc1ccccc1)NC(=O)[C@H](CO)NC(=O)CNC(=O)[C@H](Cc1c[nH]cn1)NC(=O)C(C)(C)NC(=O)[C@@H](N)Cc1c[nH]cn1)[C@@H](C)O)C(C)C)C(C)C)C(=O)N[C@@H](C)C(=O)N[C@@H](CC(N)=O)C(=O)N[C@H](C(N)=O)[C@@H](C)O [Peptide 217] (H-H[Aib]HGS[αMeF]TSDVSK[αMeF]LDSR[Aib]AK([AEEA-AEEA-γGlu-γGlu-C20 diacid])DFVQWIANT-NH2)	9.58	0.9	9.90
CC[C@H](C)[C@H](NC(=O)[C@H](Cc1c[nH]c2ccccc12)NC(=O)[C@H](CCC(N)=O)NC(=O)[C@@H](NC(=O)[C@H](Cc1ccccc1)NC(=O)[C@H](CC(=O)O)NC(=O)[C@H](CCCCNC(=O)COCCOCCNC(=O)COCCOCCNC(=O)CC[C@H](NC(=O)CC[C@H](NC(=O)CCCCCCCCCCCCCCCCCCC(=O)O)C(=O)O)C(=O)O)NC(=O)[C@H](C)NC(=O)[C@H](C)NC(=O)[C@H](CCCNC(=N)N)NC(=O)[C@H](CO)NC(=O)[C@H](CC(=O)O)NC(=O)[C@H](CC(C)C)NC(=O)[C@](C)(Cc1ccccc1)NC(=O)[C@H](CCCCN)NC(=O)[C@H](CO)NC(=O)[C@@H](NC(=O)[C@H](CC(=O)O)NC(=O)[C@H](CO)NC(=O)[C@@H](NC(=O)[C@](C)(Cc1ccccc1)NC(=O)[C@H](CO)NC(=O)CNC(=O)[C@H](Cc1c[nH]cn1)NC(=O)C(C)(C)NC(=O)[C@@H](N)Cc1c[nH]cn1)[C@@H](C)O)C(C)C)C(C)C)C(=O)N[C@@H](C)C(=O)N[C@@H](CC(N)=O)C(=O)N[C@H](C(=O)NCC(N)=O)[C@@H](C)O [Peptide 218] (H-H[Aib]HGS[αMeF]TSDVSK[αMeF]LDSRAAK([AEEA-AEEA-γGlu-γGlu-C20 diacid])DFVQWIANTG-NH2)	9.86	6.0	9.37
CC[C@H](C)[C@H](NC(=O)C(C)(C)NC(=O)[C@H](CCC(N)=O)NC(=O)[C@@H](NC(=O)[C@H](Cc1ccccc1)NC(=O)[C@H](CC(=O)O)NC(=O)[C@H](CCCCNC(=O)COCCOCCNC(=O)COCCOCCNC(=O)CC[C@H](NC(=O)CC[C@H](NC(=O)CCCCCCCCCCCCCCCCCCC(=O)O)C(=O)O)C(=O)O)NC(=O)[C@H](C)NC(=O)C(C)(C)NC(=O)[C@H](CCCNC(=N)N)NC(=O)[C@H](CO)NC(=O)[C@H](CC(=O)O)NC(=O)[C@H](CC(C)C)NC(=O)[C@](C)(Cc1ccccc1)NC(=O)[C@H](CCCCN)NC(=O)[C@H](CO)NC(=O)[C@@H](NC(=O)[C@H](CC(=O)O)NC(=O)[C@H](CO)NC(=O)[C@@H](NC(=O)[C@](C)(Cc1ccccc1)NC(=O)[C@H](CO)NC(=O)CNC(=O)[C@H](Cc1c[nH]cn1)NC(=O)C(C)(C)NC(=O)[C@@H](N)Cc1c[nH]cn1)[C@@H](C)O)C(C)C)C(C)C)C(=O)N[C@@H](C)C(=O)N[C@@H](CC(N)=O)C(=O)N[C@H](C(N)=O)[C@@H](C)O [Peptide 220] (H-H[Aib]HGS[αMeF]TSDVSK[αMeF]LDSR[Aib]AK([AEEA-AEEA-γGlu-γGlu-C20 diacid])DFVQ[Aib]IANT-NH2)	9.62	3.3	9.39
CC[C@H](C)[C@H](NC(=O)[C@H](CO)NC(=O)[C@H](CCC(N)=O)NC(=O)[C@@H](NC(=O)[C@H](Cc1ccccc1)NC(=O)[C@H](CC(=O)O)NC(=O)[C@H](CCCCNC(=O)COCCOCCNC(=O)COCCOCCNC(=O)CC[C@H](NC(=O)CCCCCCCCCCCCCCCCC(=O)O)C(=O)O)NC(=O)[C@H](C)NC(=O)[C@H](C)NC(=O)[C@H](CCC(N)=O)NC(=O)[C@H](CO)NC(=O)[C@H](CC(=O)O)NC(=O)[C@H](CC(C)C)NC(=O)[C@](C)(Cc1ccccc1)NC(=O)[C@H](CCCCN)NC(=O)[C@H](CO)NC(=O)[C@@H](NC(=O)[C@H](CC(=O)O)NC(=O)[C@H](CO)NC(=O)[C@@H](NC(=O)[C@](C)(Cc1ccccc1)NC(=O)[C@H](CO)NC(=O)CNC(=O)[C@H](Cc1c[nH]cn1)NC(=O)C(C)(C)NC(=O)[C@@H](N)Cc1c[nH]cn1)[C@@H](C)O)C(C)C)C(C)C)C(=O)N[C@@H](C)C(=O)N[C@@H](CC(N)=O)C(=O)N[C@H](C(N)=O)[C@@H](C)O [Peptide 222] (H-H[Aib]HGS[αMeF]TSDVSK[αMeF]LDSQAAK([AEEA-AEEA-γGlu-C18 diacid])DFVQSIANT-NH2)	9.82	3.2	9.61

Stronger by pEC50 [1], values ahead:

pEC50 [1]	% Relative Potency Ratio [1]	pEC50 [2]	Structure (SMILES)
10.02	6.2	9.53	CC[C@H](C)[C@H](NC(=O)[C@H](Cc1c[nH]c2ccccc12)NC(=O)[C@H](CCC(N)=O)NC(=O)[C@@H](NC(=O)[C@H](Cc1ccccc1)NC(=O)[C@H](CC(=O)O)NC(=O)[C@H](CCCCNC(=O)COCCOCCNC(=O)COCCOCCNC(=O)CC[C@H](NC(=O)CC[C@H](NC(=O)CCCCCCCCCCCCCCCCCCC(=O)O)C(=O)O)C(=O)O)NC(=O)[C@H](C)NC(=O)[C@H](C)NC(=O)[C@H](CCCNC(=N)N)NC(=O)[C@H](CO)NC(=O)[C@H](CC(=O)O)NC(=O)[C@H](CC(C)C)NC(=O)[C@](C)(Cc1ccccc1)NC(=O)[C@H](CCCCN)NC(=O)[C@H](CO)NC(=O)[C@@H](NC(=O)[C@H](CC(=O)O)NC(=O)[C@H](CO)NC(=O)[C@@H](NC(=O)[C@](C)(Cc1ccccc1)NC(=O)[C@H](CO)NC(=O)CNC(=O)[C@H](Cc1c[nH]cn1)NC(=O)C(C)(C)NC(=O)[C@@H](N)Cc1c[nH]cn1)[C@@H](C)O)C(C)C)C(C)C)C(=O)N[C@@H](C)C(=O)N[C@@H](CC(N)=O)C(=O)N[C@H](C(=O)NCC(=O)NCC(N)=O)[C@@H](C)O [Peptide 219] (H-H[Aib]HGS[αMeF]TSDVSK[αMeF]LDSRAAK([AEEA-AEEA-γGlu-γGlu-C20 diacid])DFVQWIANTGG-NH2; N-terminus assumed)
9.91	2.0	9.91	CC[C@H](C)[C@H](NC(=O)C(C)(C)NC(=O)[C@H](CCC(N)=O)NC(=O)[C@@H](NC(=O)[C@H](Cc1ccccc1)NC(=O)[C@H](CC(=O)O)NC(=O)[C@H](CCCCNC(=O)COCCOCCNC(=O)COCCOCCNC(=O)CC[C@H](NC(=O)CC[C@H](NC(=O)CCCCCCCCCCCCCCCCCCC(=O)O)C(=O)O)C(=O)O)NC(=O)[C@H](C)NC(=O)[C@H](C)NC(=O)[C@H](CCCNC(=N)N)NC(=O)[C@H](CO)NC(=O)[C@H](CC(=O)O)NC(=O)[C@H](CC(C)C)NC(=O)[C@](C)(Cc1ccccc1)NC(=O)[C@H](CCCCN)NC(=O)[C@H](CO)NC(=O)[C@@H](NC(=O)[C@H](CC(=O)O)NC(=O)[C@H](CO)NC(=O)[C@@H](NC(=O)[C@](C)(Cc1ccccc1)NC(=O)[C@H](CO)NC(=O)CNC(=O)[C@H](Cc1c[nH]cn1)NC(=O)C(C)(C)NC(=O)[C@@H](N)Cc1c[nH]cn1)[C@@H](C)O)C(C)C)C(C)C)C(=O)N[C@@H](C)C(=O)N[C@@H](CC(N)=O)C(=O)N[C@H](C(N)=O)[C@@H](C)O [Peptide 221] (H-H[Aib]HGS[αMeF]TSDVSK[αMeF]LDSRAAK([AEEA-AEEA-γGlu-γGlu-C20 diacid])DFVQ[Aib]IANT-NH2; N-terminus assumed)
10.46	8.2	9.84	CC[C@H](C)[C@H](NC(=O)C(C)(C)NC(=O)[C@H](CCC(N)=O)NC(=O)[C@@H](NC(=O)[C@](C)(Cc1ccccc1)NC(=O)[C@H](CC(=O)O)NC(=O)[C@H](CCCCNC(=O)COCCOCCNC(=O)COCCOCCNC(=O)CC[C@H](NC(=O)CCCCCCCCCCCCCCCCC(=O)O)C(=O)O)NC(=O)[C@H](C)NC(=O)[C@H](C)NC(=O)[C@H](CCCNC(=N)N)NC(=O)[C@H](CO)NC(=O)[C@H](CC(=O)O)NC(=O)[C@H](CC(C)C)NC(=O)[C@](C)(Cc1ccccc1)NC(=O)[C@H](CCCCN)NC(=O)[C@H](CO)NC(=O)[C@@H](NC(=O)[C@H](CC(=O)O)NC(=O)[C@H](CO)NC(=O)[C@@H](NC(=O)[C@](C)(Cc1ccccc1)NC(=O)[C@H](CO)NC(=O)CNC(=O)[C@H](Cc1c[nH]cn1)NC(=O)C(C)(C)NC(=O)[C@@H](N)Cc1c[nH]cn1)[C@@H](C)O)C(C)C)C(C)C)C(=O)N[C@@H](C)C(=O)N[C@@H](CC(N)=O)C(=O)N[C@H](C(=O)NCC(=O)NCC(N)=O)[C@@H](C)O [Peptide 225] (H-H[Aib]HGS[αMeF]TSDVSK[αMeF]LDSRAAK([AEEA-AEEA-γGlu-C18 diacid])D[αMeF]VQ[Aib]IANTGG-NH2)
